Results reported in US12673945B2, “3-((8-((1H-pyrazol-4-yl)amino)imidazo[1,2-a]pyridin-3-yl)ethinyl)-n-phenylbenzamide derivative, method for preparing same, and pharmaceutical composition containing same as active ingredient for prevention or treatment of cancer” (DAEGU-GYEONGBUK MEDICAL INNOVATION FOUNDATION, priority 2020, dated 2026).

How the values were obtained:
Test in all cases: scanMAX Kinase panel (DiscoverX)
Type in all cases: binding
[1] = biological target: T1, DDR1 (Homo sapiens, UniProt Q08345); settings: read-out: % Cont @ 1 uM
T1 construct: purchased DiscoverX scanMAX Kinase panel
Outline: (§1)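 Values are % control at 1 μM compound (in DMSO), scaled against positive- and negative-control wells.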

[2] = biological target: T2, MEK5 (Homo sapiens, UniProt Q13163); settings: read-out: % Cont @ 1 uM
T2 construct: purchased DiscoverX scanMAX Kinase panel
T2 sequence (Q13163 whole entry): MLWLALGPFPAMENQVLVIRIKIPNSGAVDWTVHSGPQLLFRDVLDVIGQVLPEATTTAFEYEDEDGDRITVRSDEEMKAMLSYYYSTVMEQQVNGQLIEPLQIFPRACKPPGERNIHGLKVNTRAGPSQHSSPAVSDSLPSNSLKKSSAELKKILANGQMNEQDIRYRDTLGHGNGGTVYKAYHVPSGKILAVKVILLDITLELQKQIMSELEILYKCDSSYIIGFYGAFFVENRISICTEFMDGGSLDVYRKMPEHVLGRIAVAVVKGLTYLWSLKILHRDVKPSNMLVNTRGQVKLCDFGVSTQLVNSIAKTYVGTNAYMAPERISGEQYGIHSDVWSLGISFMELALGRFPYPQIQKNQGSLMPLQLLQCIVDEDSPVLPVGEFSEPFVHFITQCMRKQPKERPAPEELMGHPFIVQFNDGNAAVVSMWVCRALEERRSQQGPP
Outline: as §1

[3] = biological target: T3, ABL1(H396P)-phosphorylated (Homo sapiens, UniProt P00519, H396P); settings: read-out: % Cont @ 1 uM
T3 construct: purchased DiscoverX
Outline: as §1

[4] = biological target: T4, BRAF (Homo sapiens, UniProt P15056); settings: read-out: % Cont @ 1 uM
T4 construct: purchased DiscoverX scanMAX Kinase panel
Outline: as §1

[5] = biological target: T5, KIT (Homo sapiens, UniProt P10721); settings: read-out: % Cont @ 1 uM
T5 construct: purchased DiscoverX scanMAX Kinase panel
Outline: as §1

[6] = biological target: T6, ABL1-phosphorylated (Homo sapiens, UniProt P00519); settings: read-out: % Cont @ 1 uM
T6 construct: purchased DiscoverX scanMAX Kinase panel
Outline: as §1

[7] = biological target: T7, KIT(D816V) (Homo sapiens, UniProt P10721, D816V); settings: read-out: % Cont @ 1 uM
T7 construct: purchased DiscoverX scanMAX Kinase panel
Outline: as §1

[8] = biological target: T8, RIPK2 (Homo sapiens, UniProt O43353); settings: read-out: % Cont @ 1 uM
T8 construct: purchased DiscoverX scanMAX Kinase panel
Outline: as §1

[9] = biological target: T9, ZAK (Homo sapiens, UniProt Q9NYL2); settings: read-out: % Cont @ 1 uM
T9 construct: purchased DiscoverX scanMAX Kinase panel
Outline: as §1

[10] = biological target: T10, BLK (Homo sapiens, UniProt P51451); settings: read-out: % Cont @ 1 uM
T10 construct: purchased DiscoverX scanMAX Kinase panel
T10 sequence (P51451 whole entry): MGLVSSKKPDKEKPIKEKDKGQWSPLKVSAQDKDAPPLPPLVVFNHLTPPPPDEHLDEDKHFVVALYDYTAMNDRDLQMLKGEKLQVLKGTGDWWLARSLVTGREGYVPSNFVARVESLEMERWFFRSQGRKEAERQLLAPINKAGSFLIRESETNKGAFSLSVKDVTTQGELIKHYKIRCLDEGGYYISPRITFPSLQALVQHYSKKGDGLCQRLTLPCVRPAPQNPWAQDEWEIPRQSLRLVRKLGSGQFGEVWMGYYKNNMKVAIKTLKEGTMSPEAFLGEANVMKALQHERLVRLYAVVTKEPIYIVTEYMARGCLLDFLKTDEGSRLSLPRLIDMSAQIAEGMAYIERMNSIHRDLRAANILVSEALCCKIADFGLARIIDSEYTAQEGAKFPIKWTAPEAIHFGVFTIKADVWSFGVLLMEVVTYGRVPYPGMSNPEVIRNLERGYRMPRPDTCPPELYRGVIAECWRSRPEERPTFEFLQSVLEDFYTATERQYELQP
Outline: as §1

[11] = biological target: T11, TNIK (Homo sapiens, UniProt Q9UKE5); settings: read-out: % Cont @ 1 uM
T11 construct: purchased DiscoverX scanMAX Kinase panel
Outline: as §1

[12] = biological target: T12, EPHA1 (Homo sapiens, UniProt P21709); settings: read-out: % Cont @ 1 uM
T12 construct: purchased DiscoverX scanMAX Kinase panel
Outline: as §1

[13] = biological target: T13, AURKB (Homo sapiens, UniProt Q96GD4); settings: read-out: % Cont @ 1 uM
T13 construct: purchased DiscoverX scanMAX Kinase panel
T13 sequence (Q96GD4 whole entry): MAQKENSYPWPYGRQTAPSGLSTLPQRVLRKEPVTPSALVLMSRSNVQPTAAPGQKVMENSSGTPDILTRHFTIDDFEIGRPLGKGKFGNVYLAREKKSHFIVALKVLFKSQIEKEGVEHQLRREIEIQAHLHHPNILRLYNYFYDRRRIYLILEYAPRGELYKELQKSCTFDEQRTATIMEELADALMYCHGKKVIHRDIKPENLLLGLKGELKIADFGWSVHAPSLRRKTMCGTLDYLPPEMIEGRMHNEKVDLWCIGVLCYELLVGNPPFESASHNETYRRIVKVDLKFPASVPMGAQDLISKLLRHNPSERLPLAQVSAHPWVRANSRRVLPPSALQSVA
Outline: as §1

[14] = biological target: T14, EPHA6 (Homo sapiens, UniProt Q9UF33); settings: read-out: % Cont @ 1 uM
T14 construct: purchased DiscoverX scanMAX Kinase panel
Outline: as §1

[15] = biological target: T15, EGFR(G719C) (Homo sapiens, UniProt P00533, G719C)
T15 construct: purchased DiscoverX scanMAX Kinase panel
Outline: as §1

[16] = biological target: T16, TAOK1 (Homo sapiens, UniProt Q7L7X3); settings: read-out: % Cont @ 1 uM
T16 construct: purchased DiscoverX scanMAX Kinase panel
Outline: as §1

[17] = biological target: T17, YES (Homo sapiens, UniProt P07947); settings: read-out: % Cont @ 1 uM
T17 construct: purchased DiscoverX scanMAX Kinase panel
Outline: as §1

[18] = biological target: T18, MERTK (Homo sapiens, UniProt Q12866); settings: read-out: % Cont @ 1 uM
T18 construct: purchased DiscoverX scanMAX Kinase panel
Outline: as §1

[19] = biological target: T19, RET(V804M) (Homo sapiens, UniProt P07949, V804M); settings: read-out: % Cont @ 1 uM
T19 construct: purchased DiscoverX scanMAX Kinase panel
Outline: as §1

[20] = biological target: T20, LYN (Homo sapiens, UniProt P07948); settings: read-out: % Cont @ 1 uM
T20 construct: purchased DiscoverX scanMAX Kinase panel
T20 sequence (P07948 whole entry): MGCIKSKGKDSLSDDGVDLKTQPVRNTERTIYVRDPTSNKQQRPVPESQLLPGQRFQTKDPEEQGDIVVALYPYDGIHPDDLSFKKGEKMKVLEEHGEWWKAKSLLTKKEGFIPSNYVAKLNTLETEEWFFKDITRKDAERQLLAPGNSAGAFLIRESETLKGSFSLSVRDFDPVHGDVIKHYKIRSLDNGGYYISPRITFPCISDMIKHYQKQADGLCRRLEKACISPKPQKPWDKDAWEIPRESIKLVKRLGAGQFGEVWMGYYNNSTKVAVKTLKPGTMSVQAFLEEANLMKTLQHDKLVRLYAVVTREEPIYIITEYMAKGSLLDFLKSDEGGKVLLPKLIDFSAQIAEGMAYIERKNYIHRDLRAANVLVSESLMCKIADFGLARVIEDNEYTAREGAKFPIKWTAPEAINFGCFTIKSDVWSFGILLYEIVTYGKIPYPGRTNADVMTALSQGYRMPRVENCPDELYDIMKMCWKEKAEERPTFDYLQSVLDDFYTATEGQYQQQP
Outline: as §1

[21] = biological target: T21, LRRK2 (Homo sapiens, UniProt Q5S007); settings: read-out: % Cont @ 1 uM
T21 construct: purchased DiscoverX scanMAX Kinase panel
T21 sequence (Q5S007 whole entry): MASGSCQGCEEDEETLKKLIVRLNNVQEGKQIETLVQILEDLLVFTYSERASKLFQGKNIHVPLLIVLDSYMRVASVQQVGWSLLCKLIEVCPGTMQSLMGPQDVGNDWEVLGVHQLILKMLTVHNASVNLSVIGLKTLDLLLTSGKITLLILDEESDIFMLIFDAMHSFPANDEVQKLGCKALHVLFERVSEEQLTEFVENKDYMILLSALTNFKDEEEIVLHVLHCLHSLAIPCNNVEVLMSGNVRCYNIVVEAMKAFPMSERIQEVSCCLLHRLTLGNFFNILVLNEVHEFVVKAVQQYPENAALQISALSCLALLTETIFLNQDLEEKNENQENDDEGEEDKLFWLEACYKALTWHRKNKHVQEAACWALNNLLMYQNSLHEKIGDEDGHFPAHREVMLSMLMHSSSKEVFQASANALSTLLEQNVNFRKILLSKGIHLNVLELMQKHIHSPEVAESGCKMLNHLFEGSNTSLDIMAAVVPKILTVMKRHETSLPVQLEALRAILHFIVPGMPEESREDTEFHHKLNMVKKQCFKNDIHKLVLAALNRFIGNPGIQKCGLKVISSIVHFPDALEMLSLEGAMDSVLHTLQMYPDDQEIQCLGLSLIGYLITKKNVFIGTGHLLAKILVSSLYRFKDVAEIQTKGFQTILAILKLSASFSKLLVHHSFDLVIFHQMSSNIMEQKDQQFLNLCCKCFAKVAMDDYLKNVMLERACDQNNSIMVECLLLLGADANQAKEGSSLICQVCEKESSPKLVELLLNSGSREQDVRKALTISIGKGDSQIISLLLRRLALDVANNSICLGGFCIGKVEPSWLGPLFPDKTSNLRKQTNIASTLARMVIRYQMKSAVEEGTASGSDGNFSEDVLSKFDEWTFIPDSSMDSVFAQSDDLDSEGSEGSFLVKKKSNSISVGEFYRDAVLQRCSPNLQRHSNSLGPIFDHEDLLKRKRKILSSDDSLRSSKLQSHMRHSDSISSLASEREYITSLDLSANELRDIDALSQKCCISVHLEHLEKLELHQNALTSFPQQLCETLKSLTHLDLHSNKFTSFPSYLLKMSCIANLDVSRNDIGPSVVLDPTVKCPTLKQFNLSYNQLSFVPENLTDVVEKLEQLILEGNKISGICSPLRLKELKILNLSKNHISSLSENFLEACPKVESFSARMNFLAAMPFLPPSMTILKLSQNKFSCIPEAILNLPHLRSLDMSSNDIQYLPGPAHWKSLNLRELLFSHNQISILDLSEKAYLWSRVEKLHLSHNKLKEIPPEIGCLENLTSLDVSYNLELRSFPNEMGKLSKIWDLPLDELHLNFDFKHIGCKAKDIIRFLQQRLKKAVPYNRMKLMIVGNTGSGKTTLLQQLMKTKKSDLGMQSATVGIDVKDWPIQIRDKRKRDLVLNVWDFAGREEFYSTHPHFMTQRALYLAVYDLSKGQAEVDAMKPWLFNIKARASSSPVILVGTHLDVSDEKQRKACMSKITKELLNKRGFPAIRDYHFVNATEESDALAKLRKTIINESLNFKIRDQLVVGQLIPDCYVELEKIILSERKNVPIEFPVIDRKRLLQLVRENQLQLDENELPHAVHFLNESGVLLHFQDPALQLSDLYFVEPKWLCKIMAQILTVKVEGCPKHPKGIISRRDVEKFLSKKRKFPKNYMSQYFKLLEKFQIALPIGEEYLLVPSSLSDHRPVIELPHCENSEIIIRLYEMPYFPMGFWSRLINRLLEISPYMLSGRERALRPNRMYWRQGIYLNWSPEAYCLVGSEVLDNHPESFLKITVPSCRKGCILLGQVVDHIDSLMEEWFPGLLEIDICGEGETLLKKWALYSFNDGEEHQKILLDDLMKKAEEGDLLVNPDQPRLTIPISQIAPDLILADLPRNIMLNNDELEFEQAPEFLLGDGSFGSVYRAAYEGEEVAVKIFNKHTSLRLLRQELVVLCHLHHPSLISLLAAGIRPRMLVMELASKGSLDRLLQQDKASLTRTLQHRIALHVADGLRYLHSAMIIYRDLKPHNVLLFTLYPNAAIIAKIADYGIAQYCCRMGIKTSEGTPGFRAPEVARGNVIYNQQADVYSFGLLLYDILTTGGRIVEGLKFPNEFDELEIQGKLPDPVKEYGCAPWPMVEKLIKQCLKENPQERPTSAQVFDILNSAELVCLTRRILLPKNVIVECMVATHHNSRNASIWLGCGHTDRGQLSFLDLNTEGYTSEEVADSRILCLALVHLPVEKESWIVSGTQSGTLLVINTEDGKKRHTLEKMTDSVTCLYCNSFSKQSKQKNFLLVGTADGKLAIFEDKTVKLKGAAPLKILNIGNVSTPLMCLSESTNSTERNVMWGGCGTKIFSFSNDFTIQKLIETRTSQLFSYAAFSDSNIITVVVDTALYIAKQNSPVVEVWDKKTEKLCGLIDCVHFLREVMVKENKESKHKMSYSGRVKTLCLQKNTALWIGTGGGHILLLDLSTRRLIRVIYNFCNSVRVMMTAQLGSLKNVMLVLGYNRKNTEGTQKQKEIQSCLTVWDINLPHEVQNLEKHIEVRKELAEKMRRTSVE
Outline: as §1

[22] = biological target: T22, FGFR3 (Homo sapiens, UniProt P22607); settings: read-out: % Cont @ 1 uM
T22 construct: purchased DiscoverX scanMAX Kinase panel
Outline: as §1

[23] = biological target: T23, TNNI3K (Homo sapiens, UniProt Q59H18); settings: read-out: % Cont @ 1 uM
T23 construct: purchased DiscoverX scanMAX Kinase panel
Outline: as §1

[24] = biological target: T24, MAP3K2 (Homo sapiens, UniProt Q9Y2U5); settings: read-out: % Cont @ 1 uM
T24 construct: purchased DiscoverX scanMAX Kinase panel
Outline: as §1

[25] = biological target: T25, RET (Homo sapiens, UniProt P07949); settings: read-out: % Cont @ 1 uM
T25 construct: purchased DiscoverX scanMAX Kinase panel
Outline: as §1

[26] = biological target: T26, ABL1(F317L)-nonphosphorylated (Homo sapiens, UniProt P00519, F317L); settings: read-out: % Cont @ 1 uM
T26 construct: purchased DiscoverX
Outline: as §1

[27] = biological target: T27, PDGFRA (Homo sapiens, UniProt P16234); settings: read-out: % Cont @ 1 uM
T27 construct: purchased DiscoverX scanMAX Kinase panel
Outline: as §1

[28] = biological target: T28, RIOK3 (Homo sapiens, UniProt O14730); settings: read-out: % Cont @ 1 uM
T28 construct: purchased DiscoverX scanMAX Kinase panel
Outline: as §1

[29] = test system: FLT3(ITD)
Outline: as §1

[30] = biological target: T29, CSK (Homo sapiens, UniProt P41240)
T29 construct: purchased DiscoverX scanMAX Kinase panel
Outline: as §1

[31] = biological target: T30, TESK1 (Homo sapiens, UniProt Q15569); settings: read-out: % Cont @ 1 uM
T30 construct: purchased DiscoverX scanMAX Kinase panel
Outline: as §1

[32] = biological target: T31, SRMS (Homo sapiens, UniProt Q9H3Y6); settings: read-out: % Cont @ 1 uM
T31 construct: purchased DiscoverX scanMAX Kinase panel
T31 sequence (Q9H3Y6 whole entry): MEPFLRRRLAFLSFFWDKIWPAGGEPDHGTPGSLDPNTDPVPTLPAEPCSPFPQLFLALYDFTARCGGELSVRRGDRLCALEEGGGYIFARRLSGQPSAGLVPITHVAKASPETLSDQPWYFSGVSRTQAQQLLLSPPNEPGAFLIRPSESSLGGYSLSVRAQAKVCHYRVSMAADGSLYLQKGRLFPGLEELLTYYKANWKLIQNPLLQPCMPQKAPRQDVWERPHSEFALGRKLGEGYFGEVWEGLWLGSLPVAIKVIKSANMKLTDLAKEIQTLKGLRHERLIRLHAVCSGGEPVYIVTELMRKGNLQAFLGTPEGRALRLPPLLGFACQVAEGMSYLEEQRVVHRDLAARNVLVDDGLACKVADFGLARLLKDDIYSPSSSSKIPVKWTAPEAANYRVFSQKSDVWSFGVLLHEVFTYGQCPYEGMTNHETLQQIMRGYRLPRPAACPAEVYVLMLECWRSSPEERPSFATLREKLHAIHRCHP
Outline: as §1

[33] = biological target: T32, FLT1 (Homo sapiens, UniProt P17948); settings: read-out: % Cont @ 1 uM
T32 construct: purchased DiscoverX scanMAX Kinase panel
Outline: as §1

[34] = biological target: T33, EGFR(L861Q) (Homo sapiens, UniProt P00533, L861Q)
T33 construct: purchased DiscoverX scanMAX Kinase panel
Outline: as §1

Structure (SMILES) | remaining binding at 1 µM [1] [%] | remaining binding at 1 µM [2] [%] | remaining binding at 1 µM [3] [%] | remaining binding at 1 µM [4] [%] | percent of control binding at 1 µM [5] [%] | remaining binding at 1 µM [6] [%] | percent of control binding at 1 µM [7] [%] | remaining binding at 1 µM [8] [%] | remaining binding at 1 µM [9] [%] | remaining binding at 1 µM [10] [%] | remaining binding at 1 µM [11] [%] | remaining binding at 1 µM [12] [%] | remaining binding at 1 µM [13] [%] | remaining binding at 1 µM [14] [%] | % Cont @ 1 uM [15] [%] | remaining binding at 1 µM [16] [%] | remaining binding at 1 µM [17] [%] | remaining binding at 1 µM [18] [%] | remaining binding at 1 µM [19] [%] | percent of control binding at 1 µM [20] [%] | also measured
Cc1cn(-c2cc(NC(=O)c3cc(C#Cc4cnc5c(Nc6cnn(C)c6)cccn45)c(C)cc3F)cc(C(C)(C)C#N)c2)cn1 [Example 1, N-(3-(2-cyanopropane-2-yl)-5-(4-methyl-1H-imidazol-1-yl)phenyl)-2-fluoro-4-methyl-5-((8-((1-methyl-1H-pyrazol-4-yl)amino)imidazo[1,2-a]pyridin-3-yl)ethynyl)benzamide] | 0.15 | 0 | 0.55 | 13 | 0 | 0.45 | 13 | 3 | 1.5 | 0.05 | 7.2 | 4.1 | 26 | 16 | 5.2 | 11 | 2.5 | 6.1 | 0.35 | 0.5 | remaining binding at 1 µM [21]: 27%; remaining binding at 1 µM [22]: 23%; remaining binding at 1 µM [23]: 1.8%; remaining binding at 1 µM [24]: 34%; remaining binding at 1 µM [25]: 0%; remaining binding at 1 µM [26]: 2.7%; percent of control binding at 1 µM [27]: 2%; remaining binding at 1 µM [28]: 31%; % Cont @ 1 uM [29]: 1.1%; % Cont @ 1 uM [30]: 0.3%; remaining binding at 1 µM [31]: 33%; remaining binding at 1 µM [32]: 1.2%; remaining binding at 1 µM [33]: 1.4%; % Cont @ 1 uM [34]: 6.7%
Cc1cn(-c2cc(NC(=O)c3cc(C#Cc4cnc5c(Nc6cnn(C)c6)cccn45)c(C)cc3F)cc(C(F)(F)F)c2)cn1 [Example 4, 2-fluoro-4-methyl-N-(3-(4-methyl-1H-imidazol-1-yl)-5-(trifluoromethyl)phenyl)-5-((8-((1-methyl-1H-pyrazol-4-yl)amino)imidazo[1,2-a]pyridin-3-yl)ethynyl)benzamide] | 0 | 1.2 | 9.6 | 34 | 1.6 | 8.4 | 61 | 37 | 8.1 | 0.4 | 25 | 37 | 57 | 25 | 56 | 96 | 10 | 3.3 | 4.3 | 4.7 | remaining binding at 1 µM [21]: 92%; remaining binding at 1 µM [22]: 88%; remaining binding at 1 µM [23]: 41%; remaining binding at 1 µM [24]: 87%; remaining binding at 1 µM [25]: 0.2%; remaining binding at 1 µM [26]: 10%; percent of control binding at 1 µM [27]: 11%; remaining binding at 1 µM [28]: 40%; % Cont @ 1 uM [29]: 6.6%; % Cont @ 1 uM [30]: 0.8%; remaining binding at 1 µM [31]: 100%; remaining binding at 1 µM [32]: 54%; remaining binding at 1 µM [33]: 11%; % Cont @ 1 uM [34]: 53%
